Data as given in patent publication US8551997B2, “Structural-based inhibitors of the glutathione binding site in aldose reductase, methods of screening therefor and methods of use” (The Board of Regents of the University of Texas System, priority 2004, dated 2013).

Tested on: C57BL/6 mice
Assay: LPS signaling in the heart (NF-kB, AP1, iNOS, kinases)
Assay type: in vivo, mouse
From the text: At the indicated times, NF-kB activation (FIG. 8A), AP1 activation with an electrophoretic mobility shift assay (FIG. 8B), iNOS expression by western blotting (FIG. 8C), or PKC activation with a total PKC assay system (FIG. 8D) (SignaTect, Promega), or phosphorylated forms of the indicated kinases by western blotting (FIG. 8E), was detected. Values are means±SEM (N=4). *P<0.001 versus LPS-treated mice. OD, optical density.
In sorbinil-treated mice, however, activation of NF-κB and AP1 decreased by ˜70% at 2 h, and the levels returned to baseline by 24 h. […] These findings are consistent with the downregulation of inflammatory cytokines and chemokines in the serum and heart upon AR inhibition (FIGS. 8A-8D). […] AR inhibition attenuated the phosphorylation of almost all members of this cascade (FIG. 8D-8E). Thus, AR appears to […] the inflammatory cascade by regulating the activation of NF-κB, thereby protecting against cardiovascular collapse in the setting of overwhelming sepsis.

## (S)-6-fluorospiro[chroman-4,4′-imidazolidine]-2,5′-dione [sorbinil]
After LPS
  cardiac iNOS levels: increased only slightly
  phosphorylation of upstream kinases of NF-κB and AP1 (MAPK, IKK, PKC, PLC) in the heart: attenuated
At 2 h after LPS
  decrease of cardiac AP1 activation: ~70%
  decrease of cardiac NF-κB activation: ~70%
mouse, in vivo
  time at which NF-κB and AP1 levels returned to baseline: ≤ 24 h
